According to ChEMBL document CHEMBL1157516, “Discovery of a novel, potent and orally active series of gamma-lactams as selective NK1 antagonists” (Bioorg Med Chem Lett, 2008):

Columns and labels:
[1] = biological target: Substance-P receptor (Homo sapiens, UniProt P25103); assay: Displacement of [3H]Sar-Met substance P from human recombinant NK1 receptor expressed in CHO cells; format: cell-based
[2] = tested on: Meriones unguiculatus; assay: Inhibition of GR-73632-induced foot tapping in Mongolian gerbil assessed as decrease in duration of foot tapping at 1 mg/kg, po after 2 hrs; format: functional
[3] = tested on: Meriones unguiculatus; assay: Inhibition of GR-73632-induced foot tapping in Mongolian gerbil assessed as decrease in duration of foot tapping at 1 mg/kg, po after 4 hrs; format: functional
[4] = tested on: Meriones unguiculatus; assay: Inhibition of GR-73632-induced foot tapping in Mongolian gerbil assessed as decrease in duration of foot tapping at 1 mg/kg, po after 6 hrs; format: functional
[5] = biological target: T1, Substance-K receptor (Homo sapiens) (UniProt P21452); assay: Displacement of [3H]Neurokinin A from human recombinant NK2 receptor expressed in CHO cells at 3 uM; format: cell-based
T1 sequence (whole entry): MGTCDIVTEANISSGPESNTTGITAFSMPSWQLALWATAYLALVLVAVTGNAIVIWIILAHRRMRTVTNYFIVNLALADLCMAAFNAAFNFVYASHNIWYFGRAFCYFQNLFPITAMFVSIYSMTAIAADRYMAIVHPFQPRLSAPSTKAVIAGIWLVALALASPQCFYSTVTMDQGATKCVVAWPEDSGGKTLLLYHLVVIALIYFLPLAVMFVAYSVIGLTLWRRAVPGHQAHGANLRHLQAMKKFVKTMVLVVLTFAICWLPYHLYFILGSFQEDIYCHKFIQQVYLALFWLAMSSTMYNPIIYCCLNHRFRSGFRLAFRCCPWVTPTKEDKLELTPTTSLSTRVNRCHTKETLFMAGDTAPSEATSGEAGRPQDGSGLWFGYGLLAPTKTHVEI

[6] = biological target: T2, Neuromedin-K receptor (Homo sapiens) (UniProt P29371); assay: Displacement of [125I]neurokinin B from human recombinant NK3 receptor expressed in CHO cells at 10 uM; format: cell-based
T2 sequence (whole entry): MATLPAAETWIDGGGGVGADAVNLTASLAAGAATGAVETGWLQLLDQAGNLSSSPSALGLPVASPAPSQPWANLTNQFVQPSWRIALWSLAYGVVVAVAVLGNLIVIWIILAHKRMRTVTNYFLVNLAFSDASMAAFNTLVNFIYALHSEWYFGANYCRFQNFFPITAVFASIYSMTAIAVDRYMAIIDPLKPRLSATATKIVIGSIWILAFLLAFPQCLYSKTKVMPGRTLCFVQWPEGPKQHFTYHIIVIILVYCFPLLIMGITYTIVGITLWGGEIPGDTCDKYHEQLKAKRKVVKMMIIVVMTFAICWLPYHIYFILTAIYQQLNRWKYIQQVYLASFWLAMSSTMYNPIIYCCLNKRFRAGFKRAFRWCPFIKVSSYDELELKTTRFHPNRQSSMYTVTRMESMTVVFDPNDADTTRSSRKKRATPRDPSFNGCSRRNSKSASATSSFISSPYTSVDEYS

[7] = biological target: T3, Neuromedin-K receptor (Homo sapiens, UniProt P29371); assay: Displacement of [125I]neurokinin B from human recombinant NK3 receptor expressed in CHO cells; format: cell-based
T3 sequence (P29371 whole entry): T2 sequence (whole entry)

Sequence of Substance-P receptor (P25103 whole entry): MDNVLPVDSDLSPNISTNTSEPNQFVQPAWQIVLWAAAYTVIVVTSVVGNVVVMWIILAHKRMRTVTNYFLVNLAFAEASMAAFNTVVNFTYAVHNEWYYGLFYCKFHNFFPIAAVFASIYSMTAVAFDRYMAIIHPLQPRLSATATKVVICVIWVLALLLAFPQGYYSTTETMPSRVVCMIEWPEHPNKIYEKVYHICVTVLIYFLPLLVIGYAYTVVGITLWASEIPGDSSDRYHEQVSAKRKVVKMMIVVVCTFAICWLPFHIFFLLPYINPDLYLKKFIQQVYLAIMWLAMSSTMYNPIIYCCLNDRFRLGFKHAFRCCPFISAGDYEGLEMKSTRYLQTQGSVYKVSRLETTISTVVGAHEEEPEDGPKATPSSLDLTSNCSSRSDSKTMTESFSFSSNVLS

Ki [1] [nM] | inhibition [5] [%] | inhibition [6] [%] | Ki [7] [nM] | Structure (SMILES) | inhibition in vivo at 1 mg/kg [2] [%] | inhibition in vivo at 1 mg/kg [3] [%] | inhibition in vivo at 1 mg/kg [4] [%]
0.3 | 1.4 | 43 |  | CC(=O)N[C@H]1C[C@@](CO[C@H](C)c2cc(C(F)(F)F)cc(C(F)(F)F)c2)(c2ccccc2)NC1=O | 94 | 94 | 91
2 |  |  |  | C[C@@H]1C[C@@](CO[C@H](C)c2cc(C(F)(F)F)cc(C(F)(F)F)c2)(c2ccccc2)NC1=O | 11 | 2 | 36
0.3 |  |  |  | CCC(=O)N[C@H]1C[C@@](CO[C@H](C)c2cc(C(F)(F)F)cc(C(F)(F)F)c2)(c2ccccc2)NC1=O | 84 | 97 | 90
0.9 |  |  |  | CC(=O)N[C@@H]1C[C@@](CO[C@H](C)c2cc(C(F)(F)F)cc(C(F)(F)F)c2)(c2ccccc2)NC1=O | 80 | 97 | 71
0.2 |  |  |  | C[C@@H](OC[C@@]1(c2ccccc2)C[C@H](N2CCCCC2=O)C(=O)N1)c1cc(C(F)(F)F)cc(C(F)(F)F)c1 | 74 | 37 | 63
0.3 |  |  |  | CCC(=O)N[C@@H]1C[C@@](CO[C@H](C)c2cc(C(F)(F)F)cc(C(F)(F)F)c2)(c2ccccc2)NC1=O | 83 | 16 | 19
0.6 | 0.1 |  | 3810 | C[C@@H](OC[C@@]1(c2ccccc2)CCC(=O)N1)c1cc(C(F)(F)F)cc(C(F)(F)F)c1 | 92 | 78 | 47
 |  |  |  | C[C@@H](OC[C@@]1(c2ccccc2)CNC(=O)N1)c1cc(C(F)(F)F)cc(C(F)(F)F)c1 | 35 | 57 | 48
2.6 |  |  |  | C[C@@H](OC[C@@]1(c2ccccc2)C[C@@H](NS(C)(=O)=O)C(=O)N1)c1cc(C(F)(F)F)cc(C(F)(F)F)c1 | 0 | 15 | 0
0.4 |  |  |  | C[C@@H](OC[C@@]1(c2ccccc2)CC(N)C(=O)N1)c1cc(C(F)(F)F)cc(C(F)(F)F)c1 (stereo partly drawn) | 5 | 13 | 11
0.7 |  |  |  | C[C@H]1C[C@@](CO[C@H](C)c2cc(C(F)(F)F)cc(C(F)(F)F)c2)(c2ccccc2)NC1=O | 77 | 85 | 44
0.5 |  |  |  | C[C@@H](OC[C@@]1(c2ccccc2)CC(O)C(=O)N1)c1cc(C(F)(F)F)cc(C(F)(F)F)c1 (stereo partly drawn) | 27 | 35 | 1
0.2 | 28 |  | 1250 | C[C@@H](OC[C@@]1(c2ccccc2)C[C@H](N2CCCC2=O)C(=O)N1)c1cc(C(F)(F)F)cc(C(F)(F)F)c1 | 100 | 100 | 98
0.5 |  |  |  | C[C@@H](OC[C@@]1(c2ccccc2)C[C@@H](N2CCCC2=O)C(=O)N1)c1cc(C(F)(F)F)cc(C(F)(F)F)c1 | 49 | 46 | 39
0.2 |  |  |  | C[C@@H](OC[C@@]1(c2ccccc2)C[C@@H](N2CCCCC2=O)C(=O)N1)c1cc(C(F)(F)F)cc(C(F)(F)F)c1 | 20 | 26 | 56
0.4 |  |  |  | C[C@@H](OC[C@@]1(c2ccccc2)C[C@H](N2CCCC2)C(=O)N1)c1cc(C(F)(F)F)cc(C(F)(F)F)c1 | 78 | 60 | 45
0.6 |  |  |  | C[C@@H](OC[C@@]1(c2ccccc2)C[C@H](NS(C)(=O)=O)C(=O)N1)c1cc(C(F)(F)F)cc(C(F)(F)F)c1 | 10 | 58 | 43
